Assay results as given in patent US10391150B2, “Treatments for migraine and related disorders” (The University of Chicago, priority 2011, dated 2019).
Where two headings read alike, the source gives them in different places.

What was measured:
[1] = system: microglia in hippocampal slice cultures; format: cell-based, rat
[2] = system: SD in neocortex and hippocampus of anesthetized rat; assay: SD threshold in vivo (0.5 M KCl injection) after nasal administration; conditions: a day after nasal treatment (IGF-1 150 μg; IL-11 1 μg; IFN-γ 50,000 units); control 1-8 nL
Experimental: Images show experimental setups for nasal administration and testing. (FIG. 7A) Nasal injection setup showing heat lamp and thermo-regulator that maintains temperature at 37° C. plus nose cone used to deliver isoflurane anesthesia. (FIG. 7B) Operator is shown administering nasal IGF-1 solution, which is performed in a fume hood to adequately vent isoflurane from nose cone. (FIG. 7C) Image illustrates standard electrophysiology setup. Anesthetized animal is placed into a standard electrophysiology holder and anesthesia maintained by a nose cone delivering 3% isoflurane in oxygen. Arterial oxygen saturation is monitored with a pulse-oximeter. Animals are warmed to 37.5° C. with a heating plate. SD is induced by progressively injecting larger volumes of 0.5 M KCl from an 8 μm diameter microelectrode. SD is registered with a second microelectrode used for DC recordings placed more caudally. After SD is evoked by a given injection pulse, the stimulating electrode is withdrawn and a volume re-injected under mineral oil. The diameter of the resultant KCl injection sphere is then measured off line using a compound microscope and the injection volume calculated. For example, in the above whole animal experiments it took 1-8 nL of 0.5 M KCl to evoke SD in control brain regions while after acute IGF-1 this amount rose to 67-109 nL. A day after IGF-1 treatment the volume needed to evoked SD was 34-48 nL. IFN-γ treatment required 338 nL of 0.5 M KCl a day after treatment and IL-11 required 67-200 nL.
Rats (FIGS. 6 and 7) are anesthetized with inhalational isoflurane and kept warm. While anesthetized, animals are placed in a supine position and 50 μL of sterile drug (i.e., IFN-γ, IGF-1, or IL-11) solution [or sterile saline vehicle (sham control)] is administered nasally by delivering 5 μL alternating between the left and right naris every 2 min over 20 minutes. Animals are given nasal drug treatments daily at the same time for 7 days before subsequent experiments. Doses for all 3 agents begin with the effective doses noted in our work using slice cultures (1×), then include others (0.1× and 10×). The inventors base this strategy on the fact that the effective culture dose for IGF-1 (40 ng/mL) closely approximates the dose used in vivo (143 μg/kg).
This approach was applied to measurement of SD threshold (FIG. 10) after treatment (FIG. 7) with nasally administered IGF-1 (150 μg), IL-11 (1 μg), IFN-γ (50,000 units), and insulin (20 μg). […] Resistance against SD was always greater in hippocampus compared to neocortex (n=4, controls; n=3, acutely after IGF-1; n=6, one day after IGF-1; n=6, one day after IL-11; n=6, one day after IFN-γ; and n=3, acutely after insulin).
Nasal administration followed by SD threshold evaluation in vivo. Vehicle or human recombinant IGF-1 (150 μg) is administered intranasally. SD threshold is established by injection of nanoliter volumes of 0.5 M KCl into neocortex or hippocampus (−2.0 mm from Bregma and 1.5 mm lateral from midline at either 750 μm or 2,800 μm into brain, respectively) using a thin-walled glass pipette and Picospritzer. Once a threshold is established, it is confirmed two more times, with an exemplary record from a vehicle-sham animal shown below. […] The diameter of the injected sphere is then measured using a compound microscope and used to calculate the injected volume, then moles of potassium. […]

[3] = system: OS from cLTP in hippocampal slice cultures; assay: OS / reactive oxygen species generated from chemical long-term potentiation (cLTP) in slice cultures; format: cell-based, rat; conditions: 3 days treatment (IFN-γ 500 U/mL; IL-11; IGF-1), compared to shams
Experimental: This beneficial effect of low-level IFN-γ is supported by results from rats. In rats, enrichment, which occurs with hippocampal learning, led to a significant elevation in hippocampal T-cells, IFN-γ and MBP.
Experiments were performed in rat hippocampal slices cultures and SD induced as previously described (Pusic et al., 2011). Results were derived from n≥3-6/group. […] This is consistent with the neural activity increase seen after SD, which mimics the hyperexcitability evident in migraine patients.
This prompted the inventors to examine whether insulin could reduce SD susceptibility by increasing CA3 pyramidal neuron bursting. The inventors induced SD trans-synaptically in rat HSC using electrical stimuli (100 μs pulses @ 10 Hz for 1 s) ranging from 1 to 10,000 nC in order to determine SD threshold in sham and experimental groups (Pusic et al., 2011). Results were based on n≥3-6/group. […] This insulin dose approximates the pharmacological levels seen in humans treated with nasal insulin. […] The inventors hypothesized that the effect of insulin occurred through IGF-1 receptor cross-talk.
The inventors use a well-accepted method for inducing cLTP in slice cultures (Kraig et al., 2010; Otmakhov et al., 2004a; Otmakhov et al., 2004b; Kopec et al., 2006). The protocol consists of raising cAMP levels and increasing synaptic activity using rolipram/forskolin applied in a Mg^2+-free Ringer's solution (36° C.) for 5 min, then allowing slices to recover in normal media.

NC1=N[C@H](O)[C@H]2[C@H]3O[C@]4(O)O[C@@H]([C@@H](O)[C@@]2(N1)[C@@H]4O)[C@]3(O)CO [TTX, tetrodotoxin]
number of microglia moving long distances [1]: significantly increased the number of microglia moving long distances

lipopolyssacharide [LPS]
number of microglia moving long distances ([1]; slice cultures, vital imaging): significantly decreased the number of microglia moving long distances

B1: Interleukin 11 (protein, listed as Homo sapiens)
chain: MNCVCRLVLVVLSLWPDTAVAPGPPPGPPRVSPDPRAELDSTVLLTRSLLADTRQLAAQLRDKFPADGDHNLDSLPTLAMSAGALGALQLPGVLTRLRADLLSYLRHVQWLRRAGGSSLKTLEPELGTLQARLDRLLRRLQLLMSRLALPQPPPDPPAPPLAPPSSAWGGIRAAHAILGGLHLTLDWAVRGLLLLKTRL
volume of 0.5 M KCl needed to evoke SD [2]: 67 to 200 nL
OS / reactive oxygen species generated from cLTP [3]: significantly reduced OS
